Earlier results on one molecule are cited in patent US8673945B2, “Solid pharmaceutical composition comprising amlodipine and losartan” (Hanmi Science Co., Ltd, priority 2009, dated 2014).

As to `CCCCc1nc(Cl)c(CO)n1Cc1ccc(-c2ccccc2-c2nn[nH]n2)cc1` [losartan, 2-butyl-4-chloro-1-[[2′-(1H-tetrazol-5-yl)[1,1′-biphenyl]-4-yl]methyl]-1H-imidazol-5-methanol], the “reduction of Cmax of losartan after food ingestion” value was “about 10%”.
